Test results as given in PMC7904550, “Application of grouping and read-across for the evaluation of parabens of different chain lengths with a particular focus on endocrine properties” (Archives of Toxicology, 2021).
Where two headings read alike, the source gives them in different places.

Key:
[1] = Octanol–water partition coefficient (Log Kow); assay type: physicochemical; conditions: mean; OECD TG 107 and OECD TG 117
Excerpt: Generally, these parabens have very similar physico-chemical properties.

[2] = tested on: Wistar rats; experiment: Reproductive toxicity screening study (OECD TG 421); assay type: in vivo, rat; conditions: for NOAEL, reproductive toxicity: OECD 421 v 2016 oral gavage (& historical OECD 422 feeding study)
Protocol: Healthy and specific pathogen-free male and female (non-pregnant and nulliparous) Wistar Crl: WI(Han) rats were obtained from Charles River Laboratories (Germany). The animals were housed in an air-conditioned room (temperature: 22 ± 3 °C; relative humidity: 55 ± 10%; artificial light, light–dark cycle: 12 h–12 h; air change: 10 times/h). Housing was in groups of 5 animals/sex/cage in individually ventilated Type IV polysulphone cages on Altromin saw fibre bedding with free access to both Altromin 1324 maintenance diet for rats and mice and tap water. Upon arrival at BSL BIOSERVICE, the animals underwent an acclimatisation period of at least 5 days, and they were approximately 15–16 weeks old at the onset of the treatment period. […]

[3] = tested on: rats; conditions: acute oral, rats, OECD 401; ref ECHA dissemination portal; cited from earlier work
[4] = tested on: Wistar rats; conditions: ref Harlan 2012, cited from earlier work

## CCCOC(=O)c1ccc(O)cc1 [Propyl paraben, Propyl 4-hydroxybenzoate]
[1]
  Log Kow: 2.8 (mean; OECD TG 107 and OECD TG 117)
[2]
  NOAEL, reproductive toxicity: NOAEL: 1000 (OECD 421; v 2016 & OECD 422 [b]) mg/kg body weight/day
[2]; listed as propyl paraben
  NOAEL, reproductive toxicity: 1000 mg/kg body weight/day
[2]; OECD TG 421
  Treatment-related effects in parental animals or pups: no treatment-related effects
[2]; P0, F1
  Accessory sex organs HP: n. a. / NAE
  Anogenital distance: n. a. / NAE
  Coagulating gland weight: n. a. / NAE
  Dystocia: n. a. / NAE
  Epididymis HP: n. a. / NAE
  Epididymis weight: n. a. / NAE
  Fertility: n. a. / NAE
  Foetal development: n. a. / NAE
  Gestation length: n. a. / NAE
  Litter size: n. a. / NAE
  Litter viability: n. a. / NAE
  Nipple development: n. a. / NAE
  No. of implantations, corpora lutea: n. a. / NAE
  No. of live births: n. a. / NAE
  Oestrus cyclicity: n. a. / NAE
  Ovary HP: n. a. / NAE
  Postimplantation loss: n. a. / NAE
  Pre-implantation loss: n. a. / NAE
  Presence of anomalies (external, visceral, skeletal): n. a. / NAE
  Prostate HP: n. a. / NAE
  Prostate weight: n. a. / NAE
  Reproduction: n. a. / NAE
  Seminal vesicles weight: n. a. / NAE
  Testis HP: n. a. / NAE
  Testis weight: n. a. / NAE
  Thyroid stimulating hormone level: n. a. / NAE
  Time to mating: n. a. / NAE
  Triiodothyronine / thyroxine level: n. a. / NAE
  Vaginal smears: n. a. / NAE
[3]
  LD50: > 5000 (OECD 401; 1982) mg/kg bw
[4]; historical OECD TG 422 feeding study, 15,000 ppm, first-generation offspring
  NOAEL: 1125 mg/kg bw/day
[4]; historical OECD TG 422 feeding study, 15,000 ppm, parental females before pairing
  NOAEL: 1076 mg/kg bw/day
[4]; historical OECD TG 422 feeding study, 15,000 ppm, parental males before pairing
  NOAEL: 981 mg/kg bw/day
[4]; historical OECD TG 422 feeding study, highest concentration tested
  NOAEL: 15,000 ppm
